Values quoted from earlier work in patent US10281459B2, “Protein biosensors, cross reactive sensor arrays and methods of use thereof” (YEDA RESEARCH AND DEVELOPMENT CO. LTD., priority 2012, dated 2019).

Columns and labels:
[1] = target: GSTs; conditions: literature
[2] = target: MMP isoforms; conditions: broad-spectrum inhibitor of MMP isoforms; literature

Structure (SMILES)	reported values for the inhibition of GSTs [1]	Ki values [2]
C=C(CC)C(=O)c1ccc(OCC(=O)O)c(Cl)c1Cl [EA, ethacrynic acid]	low micromolar range	–
CNC(=O)[C@@H](NC(=O)[C@H](CC(C)C)[C@H](O)C(=O)NO)C(C)(C)C [Marimastat, marimastat]	–	low nanomolar range
